Experimental data from ChEMBL document CHEMBL1158386, “Synthesis and biological evaluation of some thiazolidinone derivatives of steroid as antibacterial agents” (2009).
Values after ≈ are worked out from the molar mass of the structure shown.

Legend:
[1] = test system: Salmonella enterica subsp. enterica; test: Antibacterial activity against Salmonella Typhimurium after 18 hrs by macro dilution test; type: functional, Salmonella enterica subsp. enterica serovar Typhimurium
[2] = test system: Escherichia coli; test: Antibacterial activity against Escherichia coli at 100 ug/ml after 18 hrs by disk diffusion method; type: functional; conditions: read-out: IZ
[3] = test system: Streptococcus pyogenes; test: Antibacterial activity against Streptococcus pyogenes at 100 ug/ml after 18 hrs by disk diffusion method; type: functional; conditions: read-out: IZ
[4] = test system: Streptococcus pyogenes; test: Antibacterial activity against Streptococcus pyogenes after 18 hrs by macro dilution test; type: functional
[5] = test system: Salmonella enterica subsp. enterica; test: Antibacterial activity against Salmonella Typhimurium at 100 ug/ml after 18 hrs by disk diffusion method; type: functional, Salmonella enterica subsp. enterica serovar Typhimurium; conditions: read-out: IZ
[6] = test system: Staphylococcus aureus; test: Antibacterial activity against Staphylococcus aureus at 100 ug/ml after 18 hrs by disk diffusion method; type: functional; conditions: read-out: IZ
[7] = test system: Staphylococcus aureus; test: Antibacterial activity against Staphylococcus aureus after 18 hrs by macro dilution test; type: functional
[8] = test system: Escherichia coli; test: Antibacterial activity against Escherichia coli after 18 hrs by macro dilution test; type: functional
[9] = test system: Staphylococcus aureus; test: Antibacterial activity against Staphylococcus aureus at 30 ug/disk after 18 hrs by disk diffusion method; type: functional; conditions: read-out: IZ
[10] = test system: Salmonella enterica subsp. enterica; test: Antibacterial activity against Salmonella Typhimurium at 30 ug/disk after 18 hrs by disk diffusion method; type: functional, Salmonella enterica subsp. enterica serovar Typhimurium; conditions: read-out: IZ
[11] = test system: Escherichia coli; test: Antibacterial activity against Escherichia coli at 30 ug/disk after 18 hrs by disk diffusion method; type: functional; conditions: read-out: IZ
[12] = test system: Streptococcus pyogenes; test: Antibacterial activity against Streptococcus pyogenes at 30 ug/disk after 18 hrs by disk diffusion method; type: functional; conditions: read-out: IZ

Row | MIC [1] | MIC [4] | MIC [7] | MIC [8] | Compound | zone of inhibition at 100 µg/mL [2] | zone of inhibition at 100 µg/mL [3] | zone of inhibition at 100 µg/mL [5] | zone of inhibition at 100 µg/mL [6] | zone of inhibition at 30 µg/disc [9] | zone of inhibition at 30 µg/disc [10] | zone of inhibition at 30 µg/disc [11] | zone of inhibition at 30 µg/disc [12]
1 | 64 µg/mL (≈ 106 µM) | 32 µg/mL (≈ 53.1 µM) | 32 µg/mL (≈ 53.1 µM) | 64 µg/mL (≈ 106 µM) | CC(C)CCC[C@@H](C)[C@H]1CC[C@H]2[C@@H]3C/C(=N/N=C4\SCC(=O)N4C4CCCC4)[C@H]4C[C@@H](Cl)CC[C@]4(C)[C@H]3CC[C@]12C | 22.5 mm | 21.4 mm | 19.4 mm | 20.4 mm |  |  |  | 
2 | 64 µg/mL (≈ 102 µM) | 32 µg/mL (≈ 51.1 µM) | 64 µg/mL (≈ 102 µM) | 32 µg/mL (≈ 51.1 µM) | CC(=O)O[C@H]1CC[C@@]2(C)[C@H](C1)/C(=N\N=C1/SCC(=O)N1C1CCCC1)C[C@@H]1[C@@H]2CC[C@]2(C)[C@@H]([C@H](C)CCCC(C)C)CC[C@@H]12 | 22.8 mm | 21.4 mm | 19.6 mm | 18.5 mm |  |  |  | 
3 |  |  |  |  | CC(=O)O[C@H]1CC[C@@]2(C)[C@H](C1)/C(=N\NC(=S)NC1CCCC1)C[C@@H]1[C@@H]2CC[C@]2(C)[C@@H]([C@H](C)CCCC(C)C)CC[C@@H]12 | 13.3 mm | 11.4 mm | 10.4 mm | 12.6 mm |  |  |  | 
4 |  |  |  |  | CC(C)CCC[C@@H](C)[C@H]1CC[C@H]2[C@@H]3C/C(=N/NC(=S)NC4CCCC4)[C@H]4C[C@@H](Cl)CC[C@]4(C)[C@H]3CC[C@]12C | 11.7 mm | 10.2 mm | 11.2 mm | 11.5 mm |  |  |  | 
5 |  |  |  |  | CC(C)CCC[C@@H](C)[C@H]1CC[C@H]2[C@@H]3C/C(=N/NC(=S)NC4CCCC4)[C@H]4CCCC[C@]4(C)[C@H]3CC[C@]12C | 12.3 mm | 10.2 mm | 10.4 mm | 9.4 mm |  |  |  | 
6 | 128 µg/mL (≈ 225 µM) | 128 µg/mL (≈ 225 µM) | 128 µg/mL (≈ 225 µM) | 128 µg/mL (≈ 225 µM) | CC(C)CCC[C@@H](C)[C@H]1CC[C@H]2[C@@H]3C/C(=N/N=C4\SCC(=O)N4C4CCCC4)[C@H]4CCCC[C@]4(C)[C@H]3CC[C@]12C | 14.2 mm | 15.2 mm | 13.6 mm | 14.5 mm |  |  |  | 

Row | Compound | MIC [1] | MIC [4] | MIC [7] | MIC [8] | zone of inhibition at 100 µg/mL [2] | zone of inhibition at 100 µg/mL [3] | zone of inhibition at 100 µg/mL [5] | zone of inhibition at 100 µg/mL [6] | zone of inhibition at 30 µg/disc [9] | zone of inhibition at 30 µg/disc [10] | zone of inhibition at 30 µg/disc [11] | zone of inhibition at 30 µg/disc [12]
7 | CC1(C)S[C@@H]2[C@H](NC(=O)[C@H](N)c3ccc(O)cc3)C(=O)N2[C@H]1C(=O)O [AMOXICILLIN] | 32 µg/mL (≈ 87.6 µM) | 32 µg/mL (≈ 87.6 µM) | 32 µg/mL (≈ 87.6 µM) | 32 µg/mL (≈ 87.6 µM) |  |  |  |  | 17 mm | 17.2 mm | 20.2 mm | 18.2 mm
